Consider 9 molecules from patent US20250326748A1, “COMPOUNDS AND METHODS FOR MODULATING SPLICING” (REMIX THERAPEUTICS INC., priority 2022, published 2025).

SMILES strings stand for the structures. Structures can show the parent of a compound that is named as a salt. Where two headings read alike, the source gives them in different places.

Series [1] relates to K562 cells. In words: Cell viability, Cell Titer Glo 2.0 assay, K562. As to conditions: 72 hours. (Cellular ATP, detected with luciferase, serves as a proxy for viable cell number.)
Series [2] deals with MYB mRNA. In words: Splicing RT-qPCR assay, MYB canonical (CJ) and alternative (AJ) junction mRNA. The class given is cell-based, human. As to conditions: Homo sapiens; for IC50: canonical junction mRNA; for AC50: alternative junction mRNA, read-out: MYB AJ (AC50, increase in AJ mRNA). As to the method:
(§1) Compounds described herein were used to modulate RNA transcript abundance in cells. The expression of a target mRNA was measured by detecting the formation of an exon-exon junction in the canonical transcript (CJ). A compound mediated exon-inclusion event was detected by observing an increase in formation of a new junction with an alternative exon (AJ). Real-time qPCR assays were used to detect these splicing switches and interrogate the potency of various compounds towards different target genes. A high-throughput real time quantitative PCR (RT-qPCR) assay was developed to measure these two isoforms of the mRNA (CJ and AJ) for exemplary genes, such as HTT, SMN2, and MYB, together with a control housekeeping gene, GAPDH or GUSB or PPIA, used for normalization. Briefly, the A673 or K562 cell line was treated with various compounds described herein (e.g., compounds of Formula (D). After treatment, the levels of the HTT, MYB, or SMN2 mRNA targets were determined from each sample of cell lysate by cDNA synthesis followed by qPCR.
(§2) • Cells-to-CT 1-step kit: ThermoFisher A25602, Cells-to-CT lysis reagent: ThermoFisher 4391851C, TaqMan™ Fast Virus 1-Step Master Mix: ThermoFisher 4444436 • GAPDH: VIC-PL, ThermoFisher 4326317E (Assay: Hs99999905_m1)—used for K562/suspension cell lines • GUSB: VIC-PL, ThermoFisher 4326320E (Assay: Hs99999908_m1)—used for K562/suspension cell lines • PPIA: VIC-PL, ThermoFisher 4326316E (Assay: Hs99999904_m1)—used for A673/adherent cell lines
(§3) The A673 cell line was cultured in DMEM with 10% FBS. Cells were diluted with full growth media and plated in a 96-well plate (15,000 cells in 100 ul media per well). The plate was incubated at 37° C. with 5% CO2 for 24 hours to allow cells to adhere. An 11-point 3-fold serial dilution of the compounds was made in DMSO then diluted in media in an intermediate plate. Compounds were transferred from the intermediate plate to the cell plate with the top dose at a final concentration of 10 uM in the well. Final DMSO concentration was kept at or below 0.25%. The cell plate was returned to the incubator at 37° C. with 5% CO2 for an additional 24 hours.
(§4) The K562 cell line was cultured in IMDM with 10% FBS. For K562, cells were diluted with full growth media and plated in either a 96-well plate (50,000 cells in 50 uL media per well) or a 384-well plate (8,000-40,000 cells in 45 uL media per well). An 11-point 3-fold serial dilution of the compounds were made in DMSO then diluted in media in an intermediate plate. Compound was transferred from the intermediate plate to the cell plate with the top dose at a final concentration of 10 uM in the well. Final DMSO concentration was kept at or below 0.25%. Final volume was 100 uL for 96-well plate and 50 uL for 384-well plate. The cell plate was then placed in an incubator at 37° C. with 5% CO2 for 24 hours.
(§5) The cells were then gently washed with 50 uL-100 uL cold PBS before proceeding to addition of lysis buffer. 30 uL-50 μL of room temperature lysis buffer with DNAse I (and optionally RNAsin) was added to each well. Cells were shaken/mixed thoroughly at room temperature for 5-10 minutes for lysis to take place and then 3 uL-5 μL of room temperature stop solution was added and wells were shaken/mixed again. After 2-5 minutes, the cell lysate plate was transferred to ice for RT-qPCR reaction setup. The lysates could also be frozen at −80° C. for later use.
(§6) In some cases, a direct lysis buffer was used. An appropriate volume of 3× lysis buffer (10 mM Tris, 150 mM NaCl, 1.5%-2.5% Igepal and 0.1-1 U/uL RNAsin, pH 7.4) was directly added to either K562 or A673 cells in media and mixed by pipetting 3 times. The plates were then incubated at room temperature with shaking/rocking for 20-50 minutes to allow for lysis to take place. After this time, the cell lysate plate was transferred to ice to set up for the RT-qPCR reactions. The lysates could also be frozen at −80° C. for later use. […]
(In general: Real-time PCR tracks product formation cycle by cycle.)

Series [3] deals with HTT mRNA. In words: Splicing RT-qPCR assay, HTT canonical (CJ) and alternative (AJ) junction mRNA. The class given is cell-based, human. As to conditions: Homo sapiens; for IC50: canonical junction mRNA; for AC50: alternative junction mRNA, read-out: HTT AJ (AC50, increase in AJ mRNA). As to the method:
as §1, §2, §3, §4, §5, §6

In series [4] the test system is Target C mRNA. In words: Splicing RT-qPCR panel, Target C canonical junction (CJ) mRNA. The class given is cell-based, human. As to conditions: Homo sapiens, read-out: Target C CJ (decrease in CJ mRNA levels, IC50). The method, then: as §1, §3, §4, §5
(§7) In some cases, a direct lysis buffer was used. An appropriate volume of 3× lysis buffer (10 mM Tris, 150 mM NaCl, 1.5%-2.5% Igepal and 0.1-1 U/uL RNAsin, pH 7.4) was directly added to either K562 or A673 cells in media and mixed by pipetting 3 times. The plates were then incubated at room temperature with shaking/rocking for 20-50 minutes to allow for lysis to take place. After this time, the cell lysate plate was transferred to ice to set up for the RT-qPCR reactions. The lysates could also be frozen at −80° C. for later use.
(§8) To set up 10 uL RT-qPCR reactions, cell lysates were transferred to 384-well qPCR plates containing the master mix according to the table below. The plates were sealed, gently vortexed, and spun down before the run. The volumes were adjusted accordingly in some instances where the reaction was carried in 20 μL. The table below summarizes the components of the RT-qPCR reactions:
(§9) The RT-qPCR reaction was performed using a QuantStudio (ThermoFisher) under the following fast cycling conditions. […]

For series [5], the system named is SMN2 mRNA. In words: Splicing RT-qPCR panel, SMN2 canonical junction (CJ) mRNA. The class given is cell-based, human. The settings on record: Homo sapiens, read-out: SMN2 CJ (decrease in CJ mRNA levels, IC50). The method, then: as §1, §3, §4, §5, §7, §8, §9
Setting [6] is: qPCR panel, read-out: MYB CJ (decrease in CJ mRNA levels, IC50).
Where [7] appears, read: RT-qPCR, A673 or K562 cells, 24 hours treatment.
Setting [8] is: RT-qPCR, A673 or K562 cells, 24 hours treatment, read-out: MYB CJ (IC50, decrease in CJ mRNA).
[9] abbreviates: 24 h, RT-qPCR, A673 or K562 cells, 24 hours treatment, read-out: HTT CJ (IC50, decrease in CJ mRNA).
[10] abbreviates: qPCR panel, read-out: HTT CJ (decrease in CJ mRNA levels, IC50).

A word on the IC50: it is the midpoint of a concentration-inhibition curve. A word on the AC50: it is the midpoint of the concentration-response curve, whichever way the signal moves. Turning to `Cn1cc2cc(-c3cc(Cl)c4cc(N5CC[C@@H](NCCF)C5)cnc4n3)c(O)cc2n1` [Compound 387, 5-{4-chloro-6-[(3R)-3-[(2-fluoroethyl)amino]pyrrolidin-1-yl]-1,8-naphthyridin-2-yl}-2-methylindazol-6-ol hydrochloride], the “Effect on Cell Viability, K562” value in series [1] is “B (100-1000 nM)”. The IC50 was below 100 nM in series [2] (setting [6]); below 100 nM in series [2] (setting [8]); 100 to 1000 nM in series [3] (setting [9]); 100 to 1000 nM in series [3] (setting [10]); 1000 to 10000 nM in series [4]. Besides, the AC50 is below 100 nM in series [2] (setting [7]) and 100 to 1000 nM in series [3] (setting [7]).
Take `Cl.Cn1cc2cc(-c3cc(Cl)c4cc(N5CC[C@H](NCCF)C5)cnc4n3)c(O)cc2n1` [Compound 389]: in series [1], the “Effect on Cell Viability, K562” value was “B (100-1000 nM)”. Moreover, the IC50 in series [2] (setting [6]) lay within 100 to 1000 nM; in series [2] (setting [8]) it was 100 to 1000 nM; in series [3] (setting [10]), 1000 to 10000 nM; in series [3] (RT-qPCR, A673 or K562 cells, 24 hours treatment, read-out: HTT CJ (IC50, decrease in CJ mRNA)), 1000 to 10000 nM; in series [4] it was 1000 to 10000 nM. The half-maximal activity concentration (AC50) in series [2] (setting [7]) was below 100 nM; in series [3] (setting [7]), 1000 to 10000 nM.
With `C[C@@H]1CN(c2cnc3nc(-c4cc(F)c5nn(C)cc5c4)ccc3c2Cl)C[C@H](C)N1` [Compound 391], the “Effect on Cell Viability, K562” value in series [1] is on record as “B (100-1000 nM)”. Further, the IC50 in series [2] (setting [6]) was 100 to 1000 nM; in series [2] (setting [8]), 100 to 1000 nM; in series [3] (setting [9]) it was above 10000 nM; in series [3] (setting [10]) it was above 10000 nM; in series [4], 1000 to 10000 nM. Besides, the AC50 in series [2] (setting [7]) lay within 100 to 1000 nM; in series [3] (setting [7]), 1000 to 10000 nM.
For `Cc1cn2nc(-c3ccc4c(Cl)c(N5C[C@@H](C)N[C@@H](C)C5)cnc4n3)cc(C)c2n1` [Compound 392], the “Effect on Cell Viability, K562” value in series [1] was “B (100-1000 nM)”. For the same molecule, the IC50 lay in the range of 100 to 1000 nM in series [2] (setting [6]); 100 to 1000 nM in series [2] (setting [8]); 1000 to 10000 nM in series [3] (setting [9]); 1000 to 10000 nM in series [3] (setting [10]); 1000 to 10000 nM in series [4]. The AC50 in series [2] (setting [7]) was in the range of 100 to 1000 nM; in series [3] (setting [7]) it was 1000 to 10000 nM.
Turning to `Cc1c(N2C[C@H](C)N[C@@H](C)C2)cnc2nc(-c3cc4cn(C)nc4c(C)c3O)ccc12` [Compound 395, 5-{6-[(3S,5S)-3,5-dimethylpiperazin-1-yl]-5-methyl-1,8-naphthyridin-2-yl}-2,7-dimethylindazol-6-ol], in series [1], the “Effect on Cell Viability, K562” value is reported as “B (100-1000 nM)”. The IC50 in series [2] (setting [6]) is below 100 nM; in series [2] (setting [8]) it was below 100 nM; in series [3] (setting [9]), 100 to 1000 nM; in series [3] (setting [10]), 100 to 1000 nM; in series [4], 1000 to 10000 nM. The AC50 lay within 100 to 1000 nM in series [2] (setting [7]) and 1000 to 10000 nM in series [3] (setting [7]).
On to `Cc1c(N2C[C@@H](C)N[C@@H](C)C2)cnc2nc(-c3cc4cn(C)nc4cc3O)ccc12` [Compound 487], for which the IC50 was below 100 nM in series [5]; 1000 to 10000 nM in series [2] (setting [6]); 1000 to 10000 nM in series [2] (setting [8]); above 10000 nM in series [3] (setting [9]); above 10000 nM in series [3] (setting [10]). In addition, the AC50 in series [2] (setting [7]) is 1000 to 10000 nM; in series [3] (setting [7]), above 10000 nM.
With `C[C@@H]1CN(c2cnc3nc(-c4cc5cn(C)nc5cc4O)ccc3c2Cl)C[C@H](C)N1` [Compound 492], the IC50 was below 100 nM in series [5]; below 100 nM in series [2] (setting [6]); below 100 nM in series [2] (setting [8]); 1000 to 10000 nM in series [3] (setting [9]); 1000 to 10000 nM in series [3] (setting [10]). The AC50 is below 100 nM in series [2] (setting [7]) and 1000 to 10000 nM in series [3] (setting [7]).
Regarding `Cn1cc2cc(-c3cc(Cl)c4cc(N5CC[C@H](NC(C)(C)C)C5)cnc4n3)c(O)c(F)c2n1` [Compound 497], the IC50 in series [5], in series [2] (setting [6]), in series [2] (setting [8]), in series [3] (setting [9]) and in series [3] (setting [10]) was below 100 nM each time. Besides, the AC50 in series [2] (setting [7]) was below 100 nM; in series [3] (setting [7]), 100 to 1000 nM.
Take `Cn1cc2cc(-c3cc(Cl)c4cc(N5CC[C@@H](NC(C)(C)C)C5)cnc4n3)c(O)c(F)c2n1` [Compound 498]: the IC50 in series [5] is below 100 nM; in series [2] (setting [6]) it was 100 to 1000 nM; in series [2] (setting [8]) it was 100 to 1000 nM; in series [3] (setting [9]) it was above 10000 nM; in series [3] (setting [10]), above 10000 nM. Further, the AC50 was 100 to 1000 nM in series [2] (setting [7]) and above 10000 nM in series [3] (setting [7]).
